Laboratory results from US20050215543A1, “Methods of treating HIV infection” (priority 2004, published 2005).
pEC50: −log10 of the molar value.

Test system: HIV-1 LAI
Test: microbe, parasite or virus in culture
Conditions: for pEC50: Human immunodeficiency virus 1, MT2, 120 h; for Combination Indices at % HIV Inhibition (Confidence Interval) 50%: 50% HIV inhibition; for Combination Indices at % HIV Inhibition (Confidence Interval) 50% / Combination Indices at % HIV Inhibition (Confidence Interval) 75% / Combination Indices at % HIV Inhibition (Confidence Interval) 90%: 95% CI in parenthesis; for Combination Indices at % HIV Inhibition (Confidence Interval) 75%: 75% HIV inhibition; for Combination Indices at % HIV Inhibition (Confidence Interval) 90%: 90% HIV inhibition; for Overall Result: two-drug combination with Compound 1, all ratios and effect levels, MT-2/HIV-1 LAI, RT assay
Protocol: Virus and cell lines. The T-cell lines, MT-2 and PM-1 were obtained through the AIDS Research and Reference Reagent Program, NIAID, and were contributed by Dr. D. Richman and Dr. R. Gallo, respectively. Both cell lines were cultured in RPMI 1640 medium supplemented with 10% fetal bovine serum, 2 mM L-glutamine and sub-cultured twice a week. The LAI strain of HIV-1 was obtained from the Fred Hutchinson Cancer Research Center, and the Bal strain was from NIH. Both virus stocks were amplified and titered in MT-2 cells (LAI) and PM-1 cells (Bal) using a virus infectivity assay.
Drug Susceptibility and Cytotoxicity Assays. For drug susceptibility assays, MT-2 cells were infected with HIV-1 LAI (or PM-1 cells with HIV-1 Bal) at an MOI of 0.005, and seeded into 96-well microtiter plates (0.1×10^6 cells/ml) containing serial dilutions of test compounds. […] Each drug ratio consisted of an array of 3-fold serial dilutions, and was performed in quadruplicate. The plates were incubated at 37° C./5% CO2. The MT-2 cells infected with HIV-1 LAI were incubated for 5 days. On day-five post-infection, 20 μl from each well was harvested and quantitated by a reverse transcriptase (RT) assay, or in samples involving non-nucleoside RT inhibitors, an MTS assay. The PM-1 cells infected with HIV-1 Bal and used for studying the combinations with CCR5 inhibitors were incubated for six days. On day-six post-infection, 20 μl from each well was harvested, 20- and 50-fold diluted and quantitated by p24 assay. Cytotoxicity assays were performed using uninfected cells, exposed to the same drug combinations, and incubated for six days. Cell viability was determined by an XTT assay. The CC50 values were calculated by using the exponential form of the median effect equation as mentioned below for calculation of EC50.
Analysis of Drug Combination Effects. For determination of CI values, drugs were diluted in a fixed ratio and multiple ratios were analyzed. The drug serial dilutions spanned a range of concentrations near the EC50 value of each compound, so that equivalent antiviral activities could be compared. Concentration-response curves were estimated for each individual drug and every combination using the median-effect equation. The equation was fit using a nonlinear regression routine (Proc Nlin) in PC SAS version 8.01 (SAS Institute Inc., SAS Version 8.01, Cary, N.C.: SAS Institute Inc., 1990).
In this equation, Fa stands for “fraction affected,” and represents the fraction of the viral load that has been inactivated. […] ED50 is drug concentration that is expected to reduce the amount of virus by 50%, and m is a parameter that reflects the slope of the concentration-response curve.
To assess antiviral effects of different drug combination treatments, combination indices (CIs) were calculated according to Chou and Rideout. The combination index was computed as CI=[D]1/[Dm]1+[D]2/[Dm]2
In this equation [Dm]1 and [Dm]2 are the concentrations of drugs that would individually produce a specific level of effect, while [D]1 and [D]2 are the concentrations of drugs in combination that would produce the same level of effect.
Theoretically, additivity is implied if the CI is equal to one, synergy if the CI is less than one, and antagonism if the CI is greater than one. […] At best, we can construct a range that contains the likely values for the CI, given the noise in the data. In this report, these ranges are reported in parentheses next to each point estimate of the CI. […] If the range fell entirely above 1.0, we would infer antagonistic behavior. If the range were to include 1.0, we would infer additivity.
In carrying out the combination experiments below, the EC50 for Compound 1 and each comparator compound was determined during the course of each study, and used in the subsequent data analysis.

[1] = combination with Compound 1, EC50 ratio 1:1 (Compound 1:comparator)
[2] = combination with Compound 1, EC50 ratio 1:1
[3] = combination with Compound 1, EC50 ratio 1:2.5
[4] = combination with Compound 1, EC50 ratio 2.5:1

SMILES	pEC50	Combination Indices at % HIV Inhibition (Confidence Interval) 50% [1]	Combination Indices at % HIV Inhibition (Confidence Interval) 75% [2]	Combination Indices at % HIV Inhibition (Confidence Interval) 90% [2]	Combination Indices at % HIV Inhibition (Confidence Interval) 50% [3]	Combination Indices at % HIV Inhibition (Confidence Interval) 75% [3]	Combination Indices at % HIV Inhibition (Confidence Interval) 90% [3]	Combination Indices at % HIV Inhibition (Confidence Interval) 50% [4]	Combination Indices at % HIV Inhibition (Confidence Interval) 75% [4]	Combination Indices at % HIV Inhibition (Confidence Interval) 90% [4]	Overall Result	Overall Result (listed as nelfinavir)	Overall Result (listed as stavudine)	Overall Result (listed as amprenavir)
Cc1c(O)cccc1C(=O)N[C@@H](CSc1ccccc1)[C@H](O)CN1C[C@H]2CCCC[C@H]2C[C@H]1C(=O)NC(C)(C)C [Nelfinavir, nelfinavir]	7.66	0.66 (0.60, 0.73)	0.78 (0.67, 0.88)	0.91 (0.71, 1.10)	0.29 (0.31, 0.46)	0.62 (0.45, 0.79)	0.99 (0.57, 1.41)	0.77 (0.69, 0.86)	0.69 (0.62, 0.77)	0.62 (0.49, 0.75)	Moderate	moderate synergy		
c1cc(CN2CCCNCCNCCCNCC2)ccc1CN1CCCNCCNCCCNCC1 [AMD-3100]	8.10	0.40 (0.34, 0.46)	0.27 (0.21, 0.33)	0.18 (0.12, 0.24)	0.25 (0.21, 0.29)	0.14 (0.11, 0.17)	0.08 (0.05, 0.10)	0.15 (0.11, 0.20)	0.28 (0.18, 0.38)	0.51 (0.20, 0.83)				
CC[C@H](C)[C@H](NC(=O)[C@H](CCC(N)=O)NC(=O)[C@H](C)NC(=O)[C@H](CCC(N)=O)NC(=O)[C@H](CCC(=O)O)NC(=O)[C@H](CC(C)C)NC(=O)[C@H](CC(C)C)NC(=O)[C@H](C)NC(=O)[C@@H](NC(=O)[C@@H](NC(=O)[C@H](CCCCN)NC(=O)[C@H](CCC(N)=O)NC(=O)[C@H](CCC(=O)O)NC(=O)[C@H](Cc1c[nH]c2ccccc12)NC(=O)[C@H](CCC(=O)O)NC(=O)[C@H](CCC(N)=O)NC(=O)[C@H](Cc1c[nH]c2ccccc12)NC(C)=O)[C@@H](C)CC)[C@@H](C)O)C(=O)N[C@@H](CCC(N)=O)C(=O)N[C@@H](CCC(N)=O)C(=O)N[C@@H](CCC(=O)O)C(=O)N[C@@H](CCCCN)C(=O)N[C@@H](CC(N)=O)C(=O)N[C@@H](CCC(=O)O)C(=O)N[C@@H](Cc1ccc(O)cc1)C(=O)N[C@@H](CCC(=O)O)C(=O)N[C@@H](CC(C)C)C(=O)N[C@@H](CCC(N)=O)C(=O)N[C@@H](CCCCN)C(=O)N[C@@H](CC(C)C)C(=O)N[C@@H](CC(=O)O)C(=O)N[C@@H](CCCCN)C(=O)N[C@@H](Cc1c[nH]c2ccccc12)C(=O)N[C@@H](C)C(=O)N[C@@H](CO)C(=O)N[C@@H](CC(C)C)C(=O)N[C@@H](Cc1c[nH]c2ccccc12)C(=O)N[C@@H](CCC(=O)O)C(=O)N[C@@H](Cc1c[nH]c2ccccc12)C(=O)N[C@@H](Cc1ccccc1)C(N)=O [Compound T-1249]		0.25 (0.20, 0.30)	0.14 (0.10, 0.19)	0.08 (0.04, 0.12)	0.32 (0.28 0.35)	0.17 (0.14, 0.19)	0.09 (0.06, 0.11)	0.19 (0.17, 0.22)	0.14 (0.12, 0.16)	0.10 (0.08, 0.13)				
Cc1cn([C@H]2C=C[C@@H](CO)O2)c(=O)[nH]c1=O [Stavudine, stavudine]	6.60	1.47 (1.16, 1.79)	0.60 (0.42, 0.78)	0.25 (0.13, 0.38)	0.50 (0.37, 0.64)	0.29 (0.18, 0.40)	0.18 (0.07, 0.28)	0.69 (0.47, 0.91)	0.55 (0.30, 0.80)	0.45 (0.12, 0.78)	Additive-		additive-synergistic	
Nc1ccn([C@@H]2CS[C@H](CO)O2)c(=O)n1 [Lamivudine, lamivudine]	6.85	1.02 (0.80, 1.23)	0.59 (0.42, 0.76)	0.37 (0.21, 0.53)	0.89 (0.76, 1.02)	0.41 (0.34, 0.47)	0.20 (0.15, 0.24)	1.07 (0.95, 1.20)	0.71 (0.58, 0.83)	0.50 (0.36, 0.65)				
CC(C)CN(C[C@@H](O)[C@H](Cc1ccccc1)NC(=O)O[C@H]1CCOC1)S(=O)(=O)c1ccc(N)cc1 [Amprenavir, amprenavir]	7.68	0.89 (0.73, 1.06)	0.93 (0.68, 1.17)	0.96 (0.57, 1.36)	1.30 (0.84, 1.76)	1.08 (0.55, 1.62)	0.90 (0.20, 1.60)	0.41 (0.34, 0.48)	0.32 (0.25, 0.40)	0.25 (0.16, 0.35)	Additive-			additive to synergistic
